Here are results for eight compounds from PMC7921063, “The Effects of Genetic Mutations and Drugs on the Activity of the Thiamine Transporter, SLC19A2” (The AAPS Journal, 2021).

In series [1] the target is T1, SLC19A2 (Homo sapiens, UniProt O60779).
T1 sequence (O60779 1-497): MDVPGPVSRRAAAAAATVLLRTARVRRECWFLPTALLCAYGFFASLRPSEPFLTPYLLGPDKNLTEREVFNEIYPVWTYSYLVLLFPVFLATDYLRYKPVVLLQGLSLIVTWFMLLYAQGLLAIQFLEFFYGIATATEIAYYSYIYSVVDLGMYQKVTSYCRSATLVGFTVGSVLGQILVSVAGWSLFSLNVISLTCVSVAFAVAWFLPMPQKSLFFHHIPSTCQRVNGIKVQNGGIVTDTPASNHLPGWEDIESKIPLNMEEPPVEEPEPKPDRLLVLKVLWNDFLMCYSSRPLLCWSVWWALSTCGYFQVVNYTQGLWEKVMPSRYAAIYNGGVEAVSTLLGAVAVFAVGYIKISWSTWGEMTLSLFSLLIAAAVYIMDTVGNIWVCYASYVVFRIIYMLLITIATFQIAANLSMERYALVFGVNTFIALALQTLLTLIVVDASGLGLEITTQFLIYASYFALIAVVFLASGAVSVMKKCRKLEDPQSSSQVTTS
Nature of the series: IC50 assays for inhibition of SLC19A2-mediated thiamine uptake. It counts as cell-based. Further details: host or cells: HEK293, stably overexpressing SLC19A2 and transiently transfected with a further 500 ng wild-type plasmid. Particulars: inhibitor 0 to 1 mM, HEK293. How it is done: (§1) Plasmids encoding wild-type SLC19A2 and three TRMA-associated variants were generated by Genscript Inc. (Piscataway, USA). Methods for generation of stably overexpressing SLC19A2 cell lines and uptake studies have been previously described ([11], [12]). Inhibition and kinetic studies were performed in SLC19A2-overexpressing stable HEK293 cells transiently transfected with an additional 500 ng of SLC19A2 wild-type plasmid.
(§2) Prescription drugs associated with MA ([2]) in addition to others belonging to listed drug classes (e.g., proton-pump inhibitors; 63 compounds total) were screened in triplicate at 1 mM to evaluate inhibitory activity against SLC19A2. The screen was performed using [^3H]-thiamine (25 nM). Each plate contained control wells exposed for 10 min (within linear range, Supplemental Figure 1) to [^3H]-thiamine (positive control), [^3H]-thiamine plus 1 mM of amprolium (negative control), and [^3H]-thiamine plus 1 mM of screened drug (3 replicates per drug). Methods have been previously described ([11]). SLC19A2 inhibitors were defined as compounds that decreased SLC19A2-mediated thiamine uptake by 50% or more at 1 mM. For compounds that met this definition, inhibition assays were conducted and IC50 values were calculated by nonlinear fitting using GraphPad Prism 7 (La Jolla, CA) ([11]).
Fig. 4 Drug screen and potency studies against SLC19A2-mediated thiamine uptake. In the screen, SLC19A2 inhibitors were defined as compounds that inhibit at least 50% of thiamine uptake compared to the positive control. The positive control was thiamine uptake in the absence of inhibitor. Out of the 63 drugs screened, ten reached that threshold. Of the ten drugs, three (fedratinib, amprolium, and trimethoprim) have IC50 values published in literature (a). […] Figures representative of 3 independent experiments except for pantoprazole

On the set-up of series [2]: method as in Reference column of Table I (PMIDs, package inserts). Particulars: maximum plasma concentration, human; ref Table I (PMIDs, package inserts); cited from earlier work.
For series [3] the following is noted: fraction unbound in plasma, human; ref Table I (PMIDs, package inserts); cited from earlier work.
For series [4], the target named is T1, SLC19A2. As to the kind of experiment: SLC19A2 inhibitor screen: [3H]-thiamine uptake in SLC19A2-overexpressing HEK293 cells. It counts as cell-based. Further details: host or cells: HEK293, stably overexpressing SLC19A2 and transiently transfected with a further 500 ng wild-type plasmid. To be noted: HEK293, 10 min; for remaining activity at 1000 µM: drug 1 mM, [3H]-thiamine 25 nM, 10 min, HEK293 cells expressing SLC19A2, relative to uptake without inhibitor, read-out: Average % SLC19A2 thiamine uptake; for inhibition at 1000 µM: at 1 mM, read-out: reduction in thiamine transport (designated SLC19A2 inhibitor). How it is done:
as §1
as §2, with “The screen was performed using [^3H]-thiamine (25 nM).” left out
Fig. 3 Common mechanisms of drug-induced megaloblastic anemia and SLC19A2 inhibitor drug screen workflow. A list of drugs associated with inducing megaloblastic anemia through various mechanisms was compiled (a). Each drug was dissolved to a final concentration of 1 mM in buffer containing radiolabeled [^3H] thiamine and exposed to HEK293 cells expressing SLC19A2 wild-type transporter for 10 min.

The target of series [5] is T2, wild-type SLC19A2 (Homo sapiens, UniProt O60779).
T2 construct: host or cells: HEK293, transiently transfected
T2 sequence (O60779 1-497): T1 sequence (O60779 1-497)
As to the kind of experiment: Thiamine transport by wild-type SLC19A2 in transiently transfected HEK293 cells with inhibitor. It counts as cell-based. Particulars: 200 μM inhibitor. How it is done: as §1
Fig. 2 Function and expression of TRMA-associated SLC19A2 variants, and the effects of two prescription drugs on SLC19A2-mediated thiamine uptake. […] Figures representative of 3 separate experiments (a). Membrane localization of GFP-tagged SLC19A2 variants. To determine TRMA variant membrane expression, constructs encoding SLC19A2 wild-type and TRMA variants were GFP-tagged and transfected in HEK293 cells. Nuclei were stained with Hoechst 33342 dye (blue) and cells were visualized with confocal microscopy (b)

The target in series [6] is human TPK1 (Homo sapiens, UniProt Q9H3S4). Nature of the series: TPK1 enzyme assay (AMP-Glo luminescence), substrate test. To be noted: 1 mM compound, 15 μg human TPK, 500 μM ATP, 30 min, 37 °C. It counts as biochemical. How it is done: Methods detailing thiamine pyrophosphokinase 1 (TPK1) enzyme assay development and execution are listed in Supplemental Figure 2 legend.
To determine if the top compounds in the SLC19A2 inhibitor screen (i.e., erythromycin, omeprazole) were substrates of human TPK1, we measured the level of adenosine monophosphate (AMP) generated in a TPK1 enzyme reaction using AMP-Glo™ Assay (Promega).
Luminescence was measured as a proxy for AMP production in human TPK1 reactions exposed to the following compounds: omeprazole 1mM (OME), erythromycin 1mM (ERY), thiamine 1mM (positive control or PC), and no substrate (negative control or NC). Reactions were comprised of 0.5 mL enzyme reaction mixture containing 100 μM MgCl2, 500 μM ATP, pH 7.4, 15 μg of human TPK and 1 mM of tested substrate incubated for 30 min at 37 °C. A negative control reaction was also prepared without added enzyme. Luminescence was measured with a GloMax luminometer (Promega). […] For omeprazole, the signal was not statistically different from the negative control (student’s t-test, p-value = 0.72). Figure representative of 3 independent experiments.

The target of series [7] is T1, SLC19A2. As to the kind of experiment: Predicted risk of SLC19A2-mediated clinical drug-drug interaction (FDA criteria). On the set-up: host or cells: HEK293, stably overexpressing SLC19A2 and transiently transfected with a further 500 ng wild-type plasmid. Particulars: (fu*Cmax)/IC50 > 0.1. An excerpt:
Clinical pharmacokinetic data from human studies ([13]–[18]) and drug monograph databases (e.g., Micromedex, FDA) were used to obtain Cmax (maximum plasma concentration) and fu (fraction of drug unbound in the plasma).

Series [8] has as its target T1, SLC19A2. Particulars: IC50 published in literature, ref PMID: 27803021; cited from earlier work.

Molecules are shown by their SMILES. Where two headings read alike, the source gives them in different places. Some results are limits rather than exact numbers.

human TPK1, sequence (Q9H3S4 whole entry): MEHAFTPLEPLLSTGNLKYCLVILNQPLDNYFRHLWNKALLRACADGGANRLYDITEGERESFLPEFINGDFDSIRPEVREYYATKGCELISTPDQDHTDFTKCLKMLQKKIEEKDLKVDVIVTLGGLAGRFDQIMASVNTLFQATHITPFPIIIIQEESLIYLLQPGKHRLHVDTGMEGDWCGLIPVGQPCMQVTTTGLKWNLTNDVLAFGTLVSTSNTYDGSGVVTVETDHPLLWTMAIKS

The IC50 is the concentration needed to halve the response being measured. Usually Cmax stands for the peak of the concentration-time curve. In series [1], `N=C(N)NC(=O)c1nc(Cl)c(N)nc1N` [Amiloride] returned an IC50 of 69 µM. In series [2], the peak concentration (Cmax) is 40 nM. In series [3], the fu was 0.77. In addition, in series [4], the remaining activity at 1000 µM was determined as 44.8% and the inhibition at 1000 µM is not below 50%.

For the compound `CCCc1ncc(C[n+]2ccccc2C)c(N)n1` [Amprolium], in series [5], the “wild-type SLC19A2 thiamine transport activity” value was “abolished”. For the same compound, in series [4], the remaining activity at 1000 µM amounted to 29.1% and the inhibition at 1000 µM was not below 50%.

`CCN(CC)CCCC(C)Nc1ccnc2cc(Cl)ccc12` (stereo not drawn) [Chloroquine] had a 50% inhibitory concentration (IC50) in series [1] of 301 µM. Further, in series [2], the Cmax was 3.4 nM. Further, the fu in series [3] is recorded as 0.36-0.39.

Consider `CC[C@H]1OC(=O)[C@H](C)[C@@H](O[C@H]2C[C@@](C)(OC)[C@@H](O)[C@H](C)O2)[C@H](C)[C@@H](O[C@@H]2O[C@H](C)C[C@H](N(C)C)[C@H]2O)[C@](C)(O)C[C@@H](C)C(=O)[C@H](C)[C@@H](O)[C@]1(C)O` [Erythromycin], for which, in series [1], the half-inhibitory concentration (IC50) turned out to be 20 µM. Besides, the “Luminescent signal (AMP production) in TPK1 reaction versus negative control” value in series [6] was “significantly higher than the negative control signal”. The highest concentration (Cmax) in series [2] was 2300 to 9600 nM. The “FDA criteria for clinically relevant transporter inhibition, unbound Cmax/IC50” value in series [7] was “met the FDA’s criteria for clinically relevant transporter inhibition”. Further, in series [3], the fu is given as 0.1-0.3. For the same compound, in series [4], the remaining activity at 1000 µM stood at 29.8% and the inhibition at 1000 µM was not below 50%.

In series [1], `COc1c(C)c2c(c(O)c1C/C=C(\C)CCC(=O)OCCN1CCOCC1)C(=O)OC2` [Mycophenolate mofetil] yielded a half-inhibitory concentration (IC50) of 145 µM. Moreover, the Cmax in series [2] is less than 900 nM. For the same compound, the fu in series [3] is recorded as 0.03 (label). Also, in series [4], the remaining activity at 1000 µM was determined as 32.8% and the inhibition at 1000 µM was not below 50%.

`COc1ccc2[nH]c([S+]([O-])Cc3ncc(C)c(OC)c3C)nc2c1` (stereo not drawn) [Omeprazole]: 207 µM corresponded to half-maximal inhibition in series [1] (IC50). Moreover, the “Luminescent signal (AMP production) in TPK1 reaction versus negative control” value in series [6] is “statistically similar to the negative control”. Further, the peak concentration (Cmax) in series [2] is 1000 to 10000 nM. Moreover, the fu in series [3] is given as 0.05 (label). Besides, in series [4], the remaining activity at 1000 µM came out at 26.6% and the inhibition at 1000 µM was not below 50%.

On to `COc1ccnc(C[S+]([O-])c2nc3ccc(OC(F)F)cc3[nH]2)c1OC` (stereo not drawn) [Pantoprazole], for which the concentration for half-maximal inhibition (IC50) in series [1] was determined as 429 µM. Besides, in series [2], the Cmax was 6500 nM. In addition, the fu in series [3] is recorded as 0.02 (label). In series [4], the remaining activity at 1000 µM turned out to be 46.5% and the inhibition at 1000 µM was not below 50%.

In the case of `COc1cc(Cc2cnc(N)nc2N)cc(OC)c1OC` [Trimethoprim], the “wild-type SLC19A2 thiamine transport activity” value in series [5] is listed as “abolished”. In series [2], the maximum concentration (Cmax) is 3440 nM. Besides, in series [4], the remaining activity at 1000 µM stood at 31.7% and the inhibition at 1000 µM was not below 50%. The IC50 in series [8] is 6.84 µM.
